Measured values taken from patent US5008247A, “Polysulfuric acid esters of bis-aldonamides and their derivatives, process for their preparation and medicaments” (Luitpold-Werk Chemisch-pharmazeutische Fabrik GmbH & Co., priority 1987, dated 1991).
Like-named read-outs stand apart in the source and are kept apart here.

How the values were obtained:
[1] = system: fibrinolysis (plasminogen-containing fibrin plates, human standard plasma); assay: Fibrinolysis test (lysis haloes on plasminogen-containing fibrin plates); format: biochemical; settings: area of lysis haloes less lysis area without substance, 24 hours at 37° C.
Text: The formation of a clinically manifest (relatively large) thrombus can be prevented in various ways. For one, the factors which are involved in the formation of the primary thrombus, such as blood platelet aggregation or the blood clotting system, can be eliminated. On the other hand, the dissolution of the primary thrombus can be accelerated by potentiating endogeneous fibrinolysis. A potentiation of endogeneous fibrinolysis can also serve to dissolve already clinically manifest thrombi again. The fibrinolytic action of a substance is thus of great significance in the prophylaxis and therapy of thrombosis. The fibrinolytic action of the substances according to the invention was determined in the test below.
Fibrinolysis was determined by means of plasminogen-containing fibrin plates.
Petri dishes, dia. 9 cm, were prewarmed to 40° C. 3 ml of a 2% solution of fibrinogen (Behringwerke, Marburg) in water, 1 ml of a plasminogen solution, 2 CTA/ ml (Behringwerke, Marburg), 3 ml of a 1% agarose solution (Serva, Heidelberg) in 50 mM TRIS/HCl, pH 7.8 and 1 ml of a solution of 15 U/ml of thrombin (Behringwerke, Marburg) in water were pipetted into the dishes with swirling. After cooling the plates, wells of 5 mm diameter were punched out.
0.1 ml of plasma (human standard plasma, Behringwerke, Marburg), 0.8 ml of water and 0.1 ml of solution of the test substance in various concentrations were incubated for 10 minutes at 37° C. […] The precipitate was taken up in 0.1 ml of buffer (20 mM TRIS/HCl, 100 mM NaCl, 2.7 mM EDTA, pH 7.8).
After 24 hours at 37° C., the lysis haloes were planimetered. The areas of the lysis haloes less the lysis areas without addition of substance serve as a measure for the fibrinolysis-increasing activity.

[2] = system: blood clotting (activated clotting system); assay: Clotting test, activated partial thromboplastin time (aPTT); format: biochemical; settings: prolongation of 150% of the blank value as reference point; converted by heparin calibration curve
Description: The inhibition of blood clotting can be measured in a simple manner by means of the activated partial thromboplastin time aPTT. It gives information about the general inhibition of the activated clotting system. In order to decrease the incidence of hemorrhages, as low as possible an inhibition of blood clotting is desired.
Clotting test, aPTT 0.1 ml of plasma and 0.1 ml of Pathromtin^R (Behringwerke, Marburg) are incubated at 37° C. for 2 minutes and 0.1 ml of 25 mM CaCl2 solution is added. The clotting time is measured in a Schnitger & Gross coagulometer. The agent is made up for 5 individual determinations per concentration.
The prlongation of the clotting time is converted into heparin units by means of a calibration curve.

[3] = system: radical formation by leucocytes; assay: Test on anti-inflammatory action: inhibition of luminol-potentiated chemiluminescence in whole blood; format: cell-based, rabbit; settings: Oryctolagus cuniculus, Leucocyte, 1.5 h, read-out: IC50 (50% inhibition of luminol-potentiated chemiluminescence)
bleeding time = assay: Influence on the bleeding time (rat tail); format: in vivo; settings: rats, 5 minutes before bleeding, compared to control
Description: A piece of tail about 2 mm long was cut from rats. The time until bleeding had stopped was measured. The test substance in various concentrations or physiological saline solution (control) was administered to the animals 5 minutes before causing the bleeding. Groups of 20 animals were treated. The proiongalion of the bleeding time compared to the control was expressed in percent.

[4] = system: blood clotting (activated clotting system); settings: standard heparin from the firm Pharmindustrie; cited from earlier work

Compound | Fibrinolysis at 2 μg/ml [1] [mm^2] | heparin units (inhibition of blood clotting, aPTT) [2] [u/mg] | IC50 [3] [µg/mL] | further results
O=C(NCCCCCCNC(=O)[C@H](OS(=O)(=O)O)[C@@H](OS(=O)(=O)O)[C@H](O[C@@H]1O[C@H](COS(=O)(=O)O)[C@H](OS(=O)(=O)O)[C@H](OS(=O)(=O)O)[C@H]1OS(=O)(=O)O)[C@@H](COS(=O)(=O)O)OS(=O)(=O)O)[C@H](OS(=O)(=O)O)[C@@H](OS(=O)(=O)O)[C@H](O[C@@H]1O[C@H](COS(=O)(=O)O)[C@H](OS(=O)(=O)O)[C@H](OS(=O)(=O)O)[C@H]1OS(=O)(=O)O)[C@@H](COS(=O)(=O)O)OS(=O)(=O)O.[Na].[Na].[Na].[Na].[Na].[Na].[Na].[Na].[Na].[Na].[Na].[Na].[Na].[Na].[Na].[Na] [Example 23, Hexadecasodium N,N'-1,6-hexanediylbis-[2,3,5,6-tetra-O-sulfo-4-O-(2,3,4,6-tetra-O-sulfo-β-D-galactopyranosyl)-D-gluconamide]] | 21.6 | 30.9 | 225 | 
O=C(NCCCCCCCCCCCCNC(=O)[C@H](OS(=O)(=O)O)[C@@H](OS(=O)(=O)O)[C@H](O[C@@H]1O[C@H](COS(=O)(=O)O)[C@H](OS(=O)(=O)O)[C@H](OS(=O)(=O)O)[C@H]1OS(=O)(=O)O)[C@@H](COS(=O)(=O)O)OS(=O)(=O)O)[C@H](OS(=O)(=O)O)[C@@H](OS(=O)(=O)O)[C@H](O[C@@H]1O[C@H](COS(=O)(=O)O)[C@H](OS(=O)(=O)O)[C@H](OS(=O)(=O)O)[C@H]1OS(=O)(=O)O)[C@@H](COS(=O)(=O)O)OS(=O)(=O)O.[Na].[Na].[Na].[Na].[Na].[Na].[Na].[Na].[Na].[Na].[Na].[Na].[Na].[Na].[Na].[Na] [Example 25, Hexadecasodium N,N'-1,12-dodecanediylbis-[2,3,5,6-tetra-O-sulfo-4-O-(2,3,4,6-tetra-O-sulfo-β-D-galactopyranosyl)-D-gluconamide]] |  | 5.85 | 155 | 
O=C(NCCCNC(=O)[C@H](OS(=O)(=O)O)[C@@H](OS(=O)(=O)O)[C@H](O[C@@H]1O[C@H](COS(=O)(=O)O)[C@H](OS(=O)(=O)O)[C@H](OS(=O)(=O)O)[C@H]1OS(=O)(=O)O)[C@@H](COS(=O)(=O)O)OS(=O)(=O)O)[C@H](OS(=O)(=O)O)[C@@H](OS(=O)(=O)O)[C@H](O[C@@H]1O[C@H](COS(=O)(=O)O)[C@H](OS(=O)(=O)O)[C@H](OS(=O)(=O)O)[C@H]1OS(=O)(=O)O)[C@@H](COS(=O)(=O)O)OS(=O)(=O)O.[Na].[Na].[Na].[Na].[Na].[Na].[Na].[Na].[Na].[Na].[Na].[Na].[Na].[Na].[Na].[Na] [Example 20, Hexadecasodium N,N'-1,3-propanediylbis-[2,3,5,6-tetra-O-sulfo-4-O-(2,3,4,6-tetra-O-sulfo-β-D-galactopyranosyl)-D-gluconamide]] | 19.2 | 42.1 | 540 | Lengthening of the bleeding time (bleeding time; Dose 0.5 mg/kg): 5.1%; Lengthening of the bleeding time (bleeding time; Dose 2 mg/kg): 35.1%
Heparin [reference compound] | 14.8 | 175 |  | Lengthening of the bleeding time (bleeding time; Dose 0.25 mg/kg): 55.4%; Lengthening of the bleeding time (bleeding time; Dose 0.5 mg/kg): 120%; heparin activity of the standard [4]: 175 U/mg
COc1ccc2c(c1)c(CC(=O)O)c(C)n2C(=O)c1ccc(Cl)cc1 [Indomethacin, reference compound] |  |  |  | IC50 ([3]; zymosan-stimulated citrated rabbit blood, maximum chemiluminescence over 90 minutes): 240 µg/mL
O=C(NC1CCC(CC2CCC(NC(=O)[C@H](OS(=O)(=O)O)[C@@H](OS(=O)(=O)O)[C@H](O[C@@H]3O[C@H](COS(=O)(=O)O)[C@H](OS(=O)(=O)O)[C@H](OS(=O)(=O)O)[C@H]3OS(=O)(=O)O)[C@@H](COS(=O)(=O)O)OS(=O)(=O)O)CC2)CC1)[C@H](OS(=O)(=O)O)[C@@H](OS(=O)(=O)O)[C@H](O[C@@H]1O[C@H](COS(=O)(=O)O)[C@H](OS(=O)(=O)O)[C@H](OS(=O)(=O)O)[C@H]1OS(=O)(=O)O)[C@@H](COS(=O)(=O)O)OS(=O)(=O)O (stereo partly drawn) [Example 31, Hexadecasodium N,N'-4,4-dicylcohexylmethanediylbis-[2,3,5,6-tetra-O-sulfo-4-O-(2,3,4,6-tetra-O-sulfo-β-D-galactopyranosyl)-D-gluconamide]] |  | 10.2 |  | 
O=C(NCCCCCCCCCNC(=O)[C@H](OS(=O)(=O)O)[C@@H](OS(=O)(=O)O)[C@H](O[C@@H]1O[C@H](COS(=O)(=O)O)[C@H](OS(=O)(=O)O)[C@H](OS(=O)(=O)O)[C@H]1OS(=O)(=O)O)[C@@H](COS(=O)(=O)O)OS(=O)(=O)O)[C@H](OS(=O)(=O)O)[C@@H](OS(=O)(=O)O)[C@H](O[C@@H]1O[C@H](COS(=O)(=O)O)[C@H](OS(=O)(=O)O)[C@H](OS(=O)(=O)O)[C@H]1OS(=O)(=O)O)[C@@H](COS(=O)(=O)O)OS(=O)(=O)O.[Na].[Na].[Na].[Na].[Na].[Na].[Na].[Na].[Na].[Na].[Na].[Na].[Na].[Na].[Na].[Na] [Example 24, Hexadecasodium N,N'-1,9-nonanediylbis-[2,3,5,6-tetra-O-sulfo-4-O-(2,3,4,6-tetra-O-sulfo-β-D-galactopyranosyl)-D-gluconamide]] | 17.8 | 14.1 | 220 | 
O=C(NCCCOCCCCOCCCNC(=O)[C@H](OS(=O)(=O)O)[C@@H](OS(=O)(=O)O)[C@H](O[C@@H]1O[C@H](COS(=O)(=O)O)[C@H](OS(=O)(=O)O)[C@H](OS(=O)(=O)O)[C@H]1OS(=O)(=O)O)[C@@H](COS(=O)(=O)O)OS(=O)(=O)O)[C@H](OS(=O)(=O)O)[C@@H](OS(=O)(=O)O)[C@H](O[C@@H]1O[C@H](COS(=O)(=O)O)[C@H](OS(=O)(=O)O)[C@H](OS(=O)(=O)O)[C@H]1OS(=O)(=O)O)[C@@H](COS(=O)(=O)O)OS(=O)(=O)O [Example 34, Hexadecasodium N,N'-1,12-(4,9-dioxadodecanediylbis)[2,3,5,6-tetra-O-sulfo-4-O-(2,3,4,6-tetra-O-sulfo-β-D-galactopyranosyl)-D-gluconamide]] |  | 15.1 |  | 
